The nature of this experiment: Inhibitory activity against PRPP synthetase.

SMILES strings stand for the structures.

For the molecule `Nc1ncnc2ncn(CCOCP(=O)(O)O)c12` [[2-(6-Amino-purin-7-yl)-ethoxymethyl]-phosphonic acid], the affinity corresponds to a Ki of 17 mM.

One may read the Ki as the dissociation constant of the complex between target and ligand, obtained from inhibition or displacement.

(Values after BindingDB's records for doi:10.1021/jm010216r (Academia Sinica, 2001).)
